Experiment [1] relates to P. aeruginosa (ATCC 27853). The experiment is classed as cell-based, Pseudomonas aeruginosa. As for the experimental part:
(§1) The antimicrobial activities of HBc ARD peptides were tested using a number of bacterial strains from ATCC, including Pseudomonas aeruginosa Migula strain (ATCC 27853, ampicillin-resistant), Pseudomonas aeruginosa Migula strain (ATCC 9027, ampicillin-resistant), Klebsiella pneumoniae strain (ATCC 17593), Escherichia coli strain (ATCC 25922), Staphylococcus aureus subsp. strain (ATCC 25923, methicillin-resistant), Staphylococcus aureus subsp. strain (ATCC 29213, methicillin-resistant), Staphylococcus aureus subsp. strain (ATCC 19636, methicillinresistant), and Candida albicans strain (ATCC 10231).
(§2) All peptides were purchased from Yao-Hong Biotechnology Inc. (Taipei, Taiwan). Vendors provided data of peptide characterizations, including HPLC and Mass (data not shown). Antimicrobial activity was determined as described with some modifications as detailed below. Bacteria were grown overnight in Mueller–Hinton broth (Difco) at 37°C, and during the mid-logarithmic phase, bacteria were diluted to 10^6 CFU (colony formation unit)/ml in phosphate buffer (10 mM sodium phosphate and 50 mM sodium chloride, pH 7.2). Peptides were serially diluted in the same buffer. Fifty microliter (µl) of bacteria was mixed with fifty µl of peptides at varying concentrations followed by incubation at 37°C for 3 hours without shaking. At the end of incubation, bacteria were placed on Mueller-Hinton broth agar plates, and allowed growth at 37°C overnight for measurement of minimal bactericidal concentration (MBC). […] All peptides were tested in triplicate.

The test system of experiment [2] is P. aeruginosa (ATCC 9027). The experiment is classed as cell-based, Pseudomonas aeruginosa. Here is the method: as §1, §2
For experiment [3], the system named is S. aureus (ATCC 29213). The format is cell-based, Staphylococcus aureus. Here is the method:
as §1, §2

Experiment [4] has as its system S. aureus (ATCC 25923). The experiment is classed as cell-based, Staphylococcus aureus. As for the experimental part: as §1, §2
In experiment [5] the test system is S. aureus (ATCC 19636). The experiment is classed as cell-based, Staphylococcus aureus. As for the experimental part:
as §1, §2

The subject of experiment [6] is E. coli (ATCC 25922). The experiment is classed as cell-based, Escherichia coli. As for the experimental part: as §1, §2
Experiment [7] relates to K. pneumonia (ATCC 13884). The experiment is classed as cell-based, Klebsiella pneumoniae.
Experiment [8] concerns tested bacteria and fungi. The experiment is classed as cell-based. Conditions: for MBC for bacteria: summary over the tested bacteria of Table 1; for Activity against all of the tested bacteria and fungi: summary of Table 1. Here is the method:
as §1, §2

Setting [9] is: ampicillin-resistant strain, 3 h at 37°C in phosphate buffer pH 7.2, triplicate.
[10] abbreviates: methicillin-resistant strain, 3 h at 37°C in phosphate buffer pH 7.2, triplicate.
Where [11] appears, read: 3 h at 37°C in phosphate buffer pH 7.2, triplicate.
Where [12] appears, read: ampicillin-resistant strain, 3 h at 37°C in 10 mM sodium phosphate, 50 mM NaCl, pH 7.2, 10^6 CFU/ml, triplicate, ND = not detectable.
[13] abbreviates: methicillin-resistant strain, 3 h at 37°C in 10 mM sodium phosphate, 50 mM NaCl, pH 7.2, 10^6 CFU/ml, triplicate, ND = not detectable.
The mark [14] stands for this setting: 3 h at 37°C in 10 mM sodium phosphate, 50 mM NaCl, pH 7.2, 10^6 CFU/ml, triplicate, ND = not detectable.

Read-outs that look alike come from different tables or passages of the source. Residues, ends and D or L forms follow the SMILES beside them. Some results are limits rather than exact numbers.

On to `CC(C)[C@H](NC(=O)[C@@H](NC(=O)[C@@H](N)[C@@H](C)O)C(C)C)C(=O)N[C@@H](CCCNC(=N)N)C(=O)N[C@@H](CCCNC(=N)N)C(=O)N[C@@H](CCCNC(=N)N)C(=O)NCC(=O)N[C@@H](CCCNC(=N)N)C(=O)N[C@@H](CO)C(=O)N1CCC[C@H]1C(=O)N[C@@H](CCCNC(=N)N)C(=O)N[C@@H](CCCNC(=N)N)C(=O)N[C@@H](CCCNC(=N)N)C(=O)N[C@H](C(=O)N1CCC[C@H]1C(=O)N[C@@H](CO)C(=O)N1CCC[C@H]1C(=O)N[C@@H](CCCNC(=N)N)C(=O)N[C@@H](C)C(=O)N[C@@H](C)C(=O)N[C@@H](CCCNC(=N)N)C(=O)N[C@@H](CO)C(=O)N[C@@H](CCC(N)=O)C(=O)N[C@@H](CO)C(=O)N1CCC[C@H]1C(=O)N[C@@H](CCCNC(=N)N)C(=O)N[C@@H](C)C(=O)N[C@@H](C)C(=O)N[C@@H](CCCNC(=N)N)C(=O)N[C@@H](CO)C(=O)N[C@@H](CCC(N)=O)C(=O)N[C@@H](CO)C(=O)N[C@@H](CCCNC(=N)N)C(=O)N[C@@H](CCC(=O)O)C(=O)N[C@@H](CO)C(=O)N[C@@H](CCC(N)=O)C(=O)N[C@@H](CS)C(=O)O)[C@@H](C)O` [HBc147-183(34AA)] (H-TVVRRRGRSPRRRTPSPRAARSQSPRAARSQSRESQC-OH; N-terminus and C-terminus assumed), for which the “Antimicrobial activity, MBC” value is 32 µM in experiment [1] (ATCC 27853, 3 h, pH 7.2); 135.94 µg/mL in experiment [1] (setting [9]); 32 µM in experiment [2] (ATCC 9027, 3 h, pH 7.2); 135.94 µg/mL in experiment [2] (setting [9]); more than 32 µM in experiment [3] (ATCC 29213, 3 h, pH 7.2); more than 135.94 µg/mL in experiment [3] (setting [10]). In addition, the “Antimicrobial activity, MBC” value is more than 32 µM in experiment [4] (ATCC 25923, 3 h, pH 7.2); more than 135.94 µg/mL in experiment [4] (setting [10]); more than 32 µM in experiment [5] (ATCC 19636, 3 h, pH 7.2); more than 135.94 µg/mL in experiment [5] (setting [10]); more than 135.94 µg/mL in experiment [6] (setting [11]); more than 32 µM in experiment [6] (ATCC 25922, 3 h, pH 7.2). Besides, the “Antimicrobial activity, MBC” value in experiment [7] (setting [11]) was 135.94 µg/mL; in experiment [7] (ATCC 13884, 3 h, pH 7.2), 32 µM. For the same compound, the “MBC for bacteria” value in experiment [8] is on record as “significantly increased”.
As for “HBc164-176: HBc ARD peptide ARD III–IV (RRRRSQSPRRRRS; UniProt P03147 164-176, looked up, fragment)”, the “Activity against all of the tested bacteria and fungi” value (“Activity against all” below) in experiment [8] is listed as “no activity”.
Regarding “HBc155p: HBc147-183 phosphorylated on S155 (TVVRRRGRSPRRRTPSPRRRRSQSPRRRRSQSRESQC; phosphorylated S155; UniProt P03147 147-183, looked up, fragment)”, the “Antimicrobial activity, MBC” value in experiment [1] (setting [12]) was 8 µM; in experiment [1] (setting [9]), 37.4 µg/mL; in experiment [2] (setting [12]) it was 8 µM; in experiment [2] (setting [9]) it was 37.4 µg/mL; in experiment [3] (setting [13]), 8 µM; in experiment [3] (setting [10]) it was 37.4 µg/mL. The “Antimicrobial activity, MBC” value in experiment [4] (setting [13]) stood at 8 µM; in experiment [4] (setting [10]) it was 37.4 µg/mL; in experiment [5] (setting [13]), 8 µM; in experiment [5] (setting [10]), 37.4 µg/mL; in experiment [6] (setting [14]), 8 µM; in experiment [6] (setting [11]), 37.4 µg/mL. Also, the “Antimicrobial activity, MBC” value in experiment [7] (setting [14]) turned out to be 1 µM; in experiment [7] (setting [11]) it was 4.67 µg/mL. For the same compound, the “MBC for bacteria” value in experiment [8] was determined as 8 µM.
As to “HBc147-159: HBc ARD peptide ARD I–II (TVVRRRGRSPRRR; UniProt P03147 147-159, looked up, fragment)”, the “Activity against all” value in experiment [8] is listed as “no activity”.
Consider `CC(C)[C@H](NC(=O)[C@@H](NC(=O)[C@@H](N)[C@@H](C)O)C(C)C)C(=O)N[C@@H](CCCNC(=N)N)C(=O)N[C@@H](CCCNC(=N)N)C(=O)N[C@@H](CCCNC(=N)N)C(=O)NCC(=O)N[C@@H](CCCNC(=N)N)C(=O)N[C@@H](CO)C(=O)N1CCC[C@H]1C(=O)N[C@@H](CCCNC(=N)N)C(=O)N[C@@H](CCCNC(=N)N)C(=O)N[C@@H](CCCNC(=N)N)C(=O)N[C@H](C(=O)N1CCC[C@H]1C(=O)N[C@@H](CO)C(=O)N1CCC[C@H]1C(=O)N[C@@H](CCCNC(=N)N)C(=O)N[C@@H](CCCNC(=N)N)C(=O)N[C@@H](CCCNC(=N)N)C(=O)N[C@@H](CCCNC(=N)N)C(=O)N[C@@H](CO)C(=O)N[C@@H](CCC(N)=O)C(=O)N[C@@H](CO)C(=O)N1CCC[C@H]1C(=O)N[C@@H](CCCNC(=N)N)C(=O)N[C@@H](CCCNC(=N)N)C(=O)N[C@@H](CCCNC(=N)N)C(=O)N[C@@H](CCCNC(=N)N)C(=O)O)[C@@H](C)O` [HBc147-175] (H-TVVRRRGRSPRRRTPSPRRRRSQSPRRRR-OH; N-terminus and C-terminus assumed), for which the “Antimicrobial activity, MBC” value in experiment [1] (ATCC 27853, 3 h, pH 7.2) was 1 µM; in experiment [1] (setting [9]), 3.68 µg/mL; in experiment [2] (ATCC 9027, 3 h, pH 7.2), 0.5 µM; in experiment [2] (setting [9]), 1.84 µg/mL; in experiment [3] (ATCC 29213, 3 h, pH 7.2), more than 32 µM; in experiment [3] (setting [10]), more than 117.86 µg/mL. Also, the “Antimicrobial activity, MBC” value was more than 32 µM in experiment [4] (ATCC 25923, 3 h, pH 7.2); more than 117.86 µg/mL in experiment [4] (setting [10]); more than 32 µM in experiment [5] (ATCC 19636, 3 h, pH 7.2); more than 117.86 µg/mL in experiment [5] (setting [10]); 3.68 µg/mL in experiment [6] (setting [11]); 1 µM in experiment [6] (ATCC 25922, 3 h, pH 7.2). Moreover, the “Antimicrobial activity, MBC” value in experiment [7] (setting [11]) was 3.68 µg/mL; in experiment [7] (ATCC 13884, 3 h, pH 7.2), 1 µM. Also, in experiment [5] (text summary over the S. aureus strains of Table 1 (ATCC 19636, 25923, 29213)), the “MBC against S. aureus” value is “lost the activity”.
For “HBc162-175: HBc ARD peptide ARD III–IV (SPRRRRSQSPRRRR; UniProt P03147 162-175, looked up, fragment)”, the “Activity against all” value in experiment [8] was “no activity”.

The values above are taken from paper PMC3681751, “Identification of a Novel Antimicrobial Peptide from Human Hepatitis B Virus Core Protein Arginine-Rich Domain (ARD)” (PLoS Pathogens, 2013).
